Entries after “also recorded” stand apart in the source; their conditions may differ.
What was measured:
[1] = tested on: Experimental Autoimmune Encephalomyelitis (EAE); test: Mouse Experimental Autoimmune Encephalomyelitis (EAE) model, clinical score; format: in vivo, C57B1.6 mice; settings: 10 mg/kg s.c. three times weekly from day 0; day 13, 14, 16, 17, 19, 21 and 26
[2] = tested on: Mouse cortical neurons (Lonza); test: Gene expression array and pathway analysis, cortical neurons; format: cell-based; settings: 0.01 mg/ml, 48 h
Protocol: For each cell line, n=8×25 cm^2 culture flasks were set up. Two flasks were harvested for each cell type on the day of treatment (24 hours after seeding). This represents the Day0 time point. From the remaining flasks, three flasks were treated with Control Medium and three were treated with Culture Medium (CM) containing LMW-DS to give a final concentration of 0.01 mg/ml. Cells from the treated flasks were collected after 48 hours. Therefore the collected data represent (a) untreated cells (Day0 Controls and Day2 Controls) and (b) cells treated with LMW-DS for 48 hours (Day2 LMW-DS treated).
25 cm^2 flasks were coated by adding 2 ml per flask of a solution of 50 μg/ml poly-d-lysine in Hank's balanced salt solution (HBSS) and incubating overnight at 37° C. in the dark. Flasks were washed with cell culture water and air-dried for 30 min in the dark. Flasks were coated by adding 1 ml per flask of a solution of 25 μg/ml laminin in phosphate-buffered saline (PBS) and incubating for 2 hour at 37° C. in the dark. The laminin flasks were washed with PBS three times before plating cells.
Medium was prepared by adding 10 ml B-27 Serum-Free Supplement and 2.5 ml GlutaMAX™-1 Supplement to 500 ml of Neurobasal medium. The medium was pre-warmed to 37° C. Cells from 12 vials were thawed sequentially in a 37° C. water bath for no longer than 2 min and gently transferred into a 15 ml tube. 9 ml of medium was gently added drop-wise to each. The cell suspension was mixed by inverting the tubes carefully twice.
The cells were centrifuged for 5 minutes at 200×g. Supernatant was removed (to the last 0.5 ml) and cells were gently resuspended by trituration. The cells from the 12 vials were mixed and distributed equally into the previously coated 25 cm^2 flasks (n=8). Cells were incubated at 37° C. with 5% CO2 for 24 hours.
LMW-DS was provided at a stock concentration of 20 mg/ml and was kept in a temperature monitored refrigerator at 4° C. A fresh […]LMW-DS stock (1.0 mg/ml) was prepared in sterile DMEM-F12. The concentrated drug stock was sterile filtered and added to the respective culture media (19.6 ml CM and 0.4 ml LMW-DS stock solution). The Control was made using 19.6 ml CM and 0.4 ml of DMEM-F12. LMW-DS and CM were added to the respective flasks (5 ml each) to reach the 0.01 mg/ml concentration of LMW-DS in each dish with a total of 10 ml CM each.
CM was aspirated into a clean and labelled 15 ml Falcon tube. The flasks (without culture medium) were placed into the −80° C. freezer for 30 minutes. The CM in the Falcon tubes were spun at 3000×g for 5 minutes. Supernatant was removed and the small pellet was re-suspended in 2.5 ml Trizol:Water (4:1) solution at room temperature (RT, […]).
Two aliquots of 1 ml lysate was removed from each sample and 200 μl of chloroform was added to each (0.2 ml of chloroform per 1 ml of TRIzol Reagent used during the cell lysis step) and the tube was shaken vigorously. Samples were stored at RT for 2-3 minutes and subsequently centrifuged at 12,000×g for 15 minutes at 4° C.
The expression data were downloaded into separate files for each cell line. The ‘Background corrected’ expression is the data from the “gProcessedSignal” of the arrays that is the result of the background signal extracted from the actual signal of the relevant probe. This is the most often used variable in array analysis. The background corrected signal was log 2 transformed for all samples for statistical analysis. To reduce the false discovery rate in the samples, the signals that were below ‘expression level’ were removed. The ‘below expression’ level was set at 5 for the log 2 transformed expression values.
Based on the expression pattern of the Control probes on each array it was decided to carry out Median Centering for all arrays before analysis to reduce the variability of the results. […]

low molecular weight dextran sulfate [LMW-DS]
mean EAE score vs vehicle control [1]: significantly (#) lower mean score; also recorded: significantly lower mean score | MMP-related genes differentially expressed [2]: none | cellular attachment from expression patterns (neurons) [2]: significant inhibition of cellular attachment | downstream effector molecules of GDF7 [2]: activated | glutamate production [2]: dis not alter | number of genes differentially expressed, D0 control to the D2 LMW-DS treated samples (second statement) [2]: 247 genes | number of genes differentially expressed, D0 control vs D2 LMW-DS treated [2]: 609 genes | number of genes: abolished nutrient effect / no effect [2]: 572 | number of genes: abolished nutrient effect / significant downregulation [2]: 7 | number of genes: abolished nutrient effect / significant upregulation [2]: 33 | number of genes: abolished nutrient effect / total [2]: 612 | number of genes: enhanced response to nutrients / significant downregulation [2]: 158 | number of genes: enhanced response to nutrients / significant upregulation [2]: 43 | number of genes: enhanced response to nutrients / total [2]: 612 | number of genes: new effect induced by LMW-DS / no effect [2]: 19 | number of genes: new effect induced by LMW-DS / significant downregulation [2]: 22 | number of genes: new effect induced by LMW-DS / significant upregulation [2]: 7 | number of genes: new effect induced by LMW-DS / total [2]: 48 | number of genes: not different from control / significant downregulation [2]: 95 | number of genes: not different from control / significant upregulation [2]: 221 | number of genes: not different from control / total [2]: 316 | number of genes: total / no effect [2]: 591 | number of genes: total / significant downregulation [2]: 282 | number of genes: total / significant upregulation [2]: 304 | number of genes: total / total [2]: 1177 | oxidative-stress effects: amyloid-β and Lewy body pathology, mitochondrial dysfunction [2]: able to prevent and reverse most of these deleterious effects
